Source: patent US11510931B2, “Compositions and methods for treating ophthalmic conditions” (MEDICON PHARMACEUTICALS, INC., priority 2016, dated 2022)

Columns and labels:
[1] = tested on: Staphylococcus aureus; experiment: Disk diffusion antimicrobial susceptibility with PS-impregnated antibiotic disks; format: cell-based; details: 24 h, mean ± SD
Method: Briefly, Staphylococcus aureus grown in culture was seeded evenly on Muller-Hinton II Agar plates (BD Diagnostic Systems) at the standard concentration of 2×10^8 colony-forming units per mL. Antibiotic antimicrobial susceptibility disks (Thermo Scientific Oxoid™) were impregnated with one of six concentrations of PS (0%, 1%, 2%, 3%, 6%, 9%); 10 μL of each was evenly dispensed on each disk. An additional control was disks with no PS and no vehicle. The growth of bacteria around each disk was monitored and the area of “no growth” around each disk was measured 24 h later.

[2] = tested on: MMPs; experiment: General MMP activity in rabbit cornea (FRET peptide); format: in vivo
Method: The general activity of MMPs was determined in the corneas of three groups of rabbits. This MMP activity assay employs a fluorescence resonance energy transfer (FRET) peptide as a generic MMP indicator. Rabbits were treated with PS 1.6% or ketorolac 0.5% eye drops topically applied to their eyes or were not treated (naïve group). Results in relative fluorescence units (RFU)/mg protein (mean±SEM). Naïve=1,328±123; PS=749±218; Ketoroloac=1,272±106 (p<0.03 vs PS).
In an acute experiment, naïve rabbits were treated with either PS or ketorolac (both administered topically) for 1 h and determined the activity of MMP in the cornea. This assay determines the activity of MMPs collectively in a given tissue.

[3] = tested on: PGE2; experiment: PGE2 levels in tears and cornea of rabbits by ELISA; format: in vivo, rabbit; details: for PGE2 levels in the cornea: administered once topically, 1 h later, FIG. 9B; for PGE2 levels in the cornea, % of the vehicle value: day 6, PS 2.3%, diclofenac 0.1%
Method: The effects of PS, ketorolac and dicofenac (the latter two ophthalmic NSAIDs known to induce corneal melt) on the tear levels of PGE2 in rabbits with concanavalin A-induced dry eye were compared. Three eye drops of PS 1.5% or of commercially available ketorolac 0.5% were given at 0 time, and 1 h later to rabbits with concanavalin A-induced DED. Tears were obtained at 2 h and the levels of PGE2 were determined by ELISA. PGE2 in tears of naïve rabbits (not exposed to concanavalin A nor treated) was also measured. The PGE2 levels (mean±SEM) were: Naïve, 110.4±12.6 ng/ml; PS-treated, 115.4±15.8 ng/ml; Ketorolac-treated, 77.7±8.7 ng/ml. The difference in PS vs. ketorolac was significant, p<0.02; as was the difference in ketorolac vs naïve, p<0.03. Regarding this parameter, PS differs radically form ketorolac, which induces corneal melt.
Levels of PGE2 in the corneas of three groups of rabbits were determined by ELISA. Rabbits were treated with PS 1.6% or ketorolac 0.5% eye drops topically applied to their eyes or were not treated (naïve group). Results in pg/mg protein (mean±SEM). Naïve=787.3±96.3; PS=880.6±110.3; Ketrolorac=247.2±187.4 (p<0.01 vs PS).
Rabbits with DED induced by concanavalin A as above were treated for 6 days with vehicle, or PS 2.3% or ketorolac 0.5% or diclofenac 0.1%. Compared to the vehicle group, on day 6 the PGE2 levels in the cornea were 106% of the vehicle value in the PS group (not a statistically significant difference), 1.3% in the ketorolac group (p<0.0001 vs. vehicle, and 2.3% in the diclofenac group (p<0.0001 vs. vehicle).
It was determined that the levels of PGE2 in rabbit tears in three groups of rabbits, naïve and those with Con A-induced DED that were treated for 1 week either with PS or vehicle.
In an acute experiment, administered once topically to the eyes of four groups of rabbits with Con A-induced DED was one of the following: vehicle, PS, ketorolac or diclofenac; the latter two are NSAIDs used for the treatment of ocular inflammation and pain. It was determined that the levels of PGE2 in the cornea of these rabbits obtained 1 h later as well as in the corneas of naïve rabbits.

[4] = tested on: concanavalin A-induced dry eye in rabbits; experiment: Concanavalin A (Con A)-induced dry eye disease (DED) model in rabbits: TBUT, Schirmer test, tear osmolarity, tear lactoferrin; format: in vivo, rabbit; details: after 1 week of treatment with NSAID; FIG. 5
Method: To assess the efficacy of PS on DED an improved concanavalin A model was used. In the concanavalin A model, dry eye is induced by injecting the lacrimal glands of a mammal with concanavalin A, a selective T cell mitogen that induces a lymphocytic infiltrate in these glands. The concanavalin A model is generally described in (Barabino S. Animal models of dry eye. Arch Soc Esp Oftalmol. 2005; 80(12):693-4). Concanavalin A was injected to the lacrimal glands under ultrasound guidance, thus eliminating injections to the vicinity of the gland (as opposed to the gland itself). The head and the tail of the major lacrimal gland of the rabbit were injected separately. The dose of concanavalin A was optimized for DED signs.
In the testing described below, four markers of DED are monitored: the tear break up time (TBUT), the Schirmer test, tear osmolarity, and tear lactoferrin levels. All assays were performed at the same clock time (±1 hr) to avoid assay variability on account of circadian variations.
In an efficacy experiment using the concanavalin A model, one group of rabbits was treated with compound 5, also known as phosphosulindac and abbreviated as PS, 1.5% eye drops and one group with vehicle. […] It is thus clear that PS applied topically suppresses DED.
Con A was injected under ultrasound guidance into all the lacrimal glands and the success of the injection was verified by a post-injection ultrasound image (see FIG. 1 and FIG. 2). […] This variation explains why the blind injections recommended in the original method are often unsuccessful. This was confirmed by mixing the Con A solution with methylene blue and tracking its course after injection. In about ⅓ of the cases, Con A ended up outside the gland.
Four parameters of efficacy were evaluated instead of the usual one or two. They include (a) the tear break up time (TBUT), determined using 0.2% fluorescein over the eye and recording the time taken to develop black dots, lines or obvious disruption of the fluorescein film; (b) tear osmolarity, measured using TearLab Osmolarity Test and following the manufacturer's instructions (TearLab Corp., San Diego, Calif.); (3) Schirmer tear test (STT), determined using Schirmer strips (EagleVision, Denville, N.J.) inserted between the cornea and the palpebral conjunctiva at the mid-point of the lower lid and measuring the length of moistened strip at 5 min; and (4) tear lactoferrin levels measured by ELISA kit (MyBiosource, San Diego, Calif.) following the instructions of the manufacturer. All four have been used in clinical practice and correlate with the clinical activity of the disease. The STT is the least reliable and, as result, it is clinically used less than half as frequently as TBUT.
The injections of Con A to the lacrimal glands were repeated weekly as needed. When longer than a 1-week periods of study are needed, repeat injections prolong dry eye for at least 3 weeks, making the originally acute model chronic.
PS Suppresses Con A—Induced Dry Eye in Rabbits. The effect of PS on dry eye was determined in New Zealand White (NZW) rabbits, 2-3 kg (Charles River Labs, Waltham, Mass.). These rabbits were housed singly in rooms with strict temperature (70±5° F.) and humidity (45±5%) control and acclimated for at least 2 weeks prior to induction of dry eye by injection of Con A as above. NZW rabbits with Con A-induced dry eye (three sets of injections) were treated with PS formulated as nanoparticles and administered topically as eye drops 3×/day for 21 days, starting on the day of Con A injection. […] Similar results were obtained on days 5 and 14 (data not shown).
Using this model, we compared the effect of PS to that of cyclosporine and lifitegrast. Rabbits were treated for 6 days with PS as above or cyclosporine 0.05% or lifitegrast 5% eye drops 3×/day. In addition to determining TUBT, osmolarity and STT, we measured the levels of IL-8 and IL-1β in the ILGs of the rabbits harvested at euthanasia. […]

[5] = tested on: cornea of New Zealand white rabbits; experiment: Corneal touch threshold (CTT), Cochet-Bonnet aesthesiometer; format: in vivo, rabbit; details: Lidocaine 1%
Method: The analgesic effect of PS was determined by measuring the corneal touch threshold (CTT) using the Luneau Cochet-Bonnet Aeshesiometer (Western Ophthalmics, Lynwood, Wash.), an adjustable nylon monofilament with a defined diameter, which is applied in different lengths to the center of the cornea. This device is generally described in Lima L, Lange R R, Turner-Giannico A, Montiani-Ferreira F. Evaluation of standardized endodontic paper point tear test in New Zealand white rabbits and comparison between corneal sensitivity followed tear tests. Vet Ophthalmol. 2015; 18 Suppl 1:119-24.
A stimulus produced by the filament that reaches the CTT induces a corneal reflex, consisting of prompt eyelid closure. The CTT is quantified as centimeter length of the filament necessary to cause the blink reflex.
The CTT is determined before (baseline) and at various time points after the application of the test compound (PS). PS was formulated either in β-cyclodextrin (42 or 8 mg/ml) or in a nanocarrier (19 mg/ml). The test drug was formulated in a nanocarrier by the emulsion and evaporation method (Vauthier C, Bouchemal K. Methods for the Preparation and Manufacture of Polymeric Nanoparticles. Pharmaceutical Research; 2009; 26:1025-1058). The formulated stable drug suspension consisted of polylactic acid and polyethylene glycol (PLLA(10k)-PEG(2k)); sodium cholate; and PS. The vehicle control was either β-cyclodextrin or the nanocarrier without PS. Commercially available lidocaine 1% was used as a positive control.
To each eye of adult New Zealand white rabbits was applied […] drops of PS or vehicle or lidocaine, with 5 minutes between each drop. The time of the last drop was taken as the 0 time.
The analgesic effect of PS was further examined on the surface of the eye by determining the corneal touch threshold (CTT) using the Luneau Cochet-Bonnet Aesthesiometer (Western Ophthalmics, Lynwood, Wash.) an adjustable nylon monofilament with a defined diameter, which is applied in different lengths to the center of the cornea.

[6] = tested on: chorioallantoic membrane (CAM); experiment: Chorioallantoic membrane (CAM) neovascularization assay; format: in vivo, chicken; details: VEGF alone; day 4; Mean ± SEM
Method: Second, the effect of PS on new vessel formation (neovascularization) was evaluated using the chorioallantoic membrane (CAM) assay. In this assay, fertilized white chicken eggs (SPF Premium, Charles River Laboratory, North Franklin, Conn.) were incubated at 37° C. in 70% humidity for 3 days. The embryos were then incubated ex vivo in a sterile Petri dish for 7 days. Gelatin sponges adsorbed with or without VEGF plus PS or water (vehicle control) were implanted on the CAM surface and the neovasculature was counted on day 4 post implantation under a dissecting microscope.

[7] = antibiotic disk with PS 0% (vehicle only)
[8] = rabbits, PS 1.6% or ketorolac 0.5% eye drops, mean±SEM
[9] = Con A DED rabbits, ketorolac 0.5%

Molecule	Inhibition Zone [1, 7]	Inhibition Zone ([1]; antibiotic disk with PS 1%)	Inhibition Zone ([1]; antibiotic disk with PS 2%)	Inhibition Zone ([1]; antibiotic disk with PS 3%)	Inhibition Zone ([1]; antibiotic disk with PS 6%)	Inhibition Zone ([1]; antibiotic disk with PS 9%)	PGE2 levels in the cornea ([3]; Con A DED rabbits)	PGE2 levels in the cornea, % of the vehicle value [3, 9]	TBUT, osmolarity and STT [4]	also measured
O=C(O)c1cn(C2CC2)c2cc(N3CCNCC3)c(F)cc2c1=O [Ciprofloxacin]	30.0 ± 0.0 mm	30.3 ± 0.6 mm	29.7 ± 0.6 mm	29.3 ± 0.6 mm	27.7 ± 0.4 mm	29.7 ± 0.6 mm				
O=C(c1ccccc1)c1ccc2n1CCC2C(=O)O (stereo not shown) [Ketorolac, ketorolac]							suppressed nearly completely	1.3%	failed to improve	MMP activity in the cornea ([2]; naïve rabbits, topical, 1 h): failed to affect; general activity of MMPs in the corneas [2, 8]: 1,272±106 RFU/mg protein; PGE2 levels in tears ([3]; Con A DED rabbits, three eye drops at 0 and 1 h, tears at 2 h, PS 1.5%, ketorolac 0.5%, mean±SEM): 77.7 ± 8.7 ng/mL; PGE2 levels in the corneas [3, 8]: 247.2±187.4 pg/mg protein
C[C@H]1COc2c(N3CCN(C)CC3)c(F)cc3c(=O)c(C(=O)O)cn1c23 [Levofloxacin]	32.3 ± 0.6 mm	32.7 ± 0.6 mm	32.0 ± 0.0 mm	31.7 ± 0.6 mm	32.3 ± 1.5 mm	31.0 ± 1.0 mm				
CCN(CC)CC(=O)Nc1c(C)cccc1C [Lidocaine, lidocaine, reference compound]										Corneal touch threshold (CTT) ([5]; 1 min): 1.5 ± 1.3 centimeter; Corneal touch threshold (CTT) ([5]; 5 min): 2.3 ± 1.5 centimeter; Corneal touch threshold (CTT) ([5]; 10 min): 3.1 ± 1.9 centimeter; Corneal touch threshold (CTT) ([5]; 20 min): 4.0 ± 1.3 centimeter; Corneal touch threshold (CTT) ([5]; 30 min): 5.8 ± 0.6 centimeter; Corneal touch threshold (CTT) ([5]; 45 min): 5.8 ± 0.6 centimeter; Corneal touch threshold (CTT) ([5]; 60 min): 6.0 ± 0.0 centimeter; Corneal touch threshold (CTT) ([5]; baseline): 6.0 ± 0.0 centimeter
O=C(O)Cc1ccccc1Nc1c(Cl)cccc1Cl [diclofenac]							suppressed nearly completely	2.3%	failed to improve	
VEGF [reference compound]										# of new vessels [6]: 62.3 ± 1.8
